Laboratory results: US20200237698A1, “Viral Inhibitor” (priority 2017, published 2020)

Tests used:
EBOV fusion protein = EBOV fusion protein (Zaire ebolavirus, UniProt Q05320); type: cell-based, Ebola
HSV-1 F' [1] = experiment: HSV-1 stock pre-treated with GA, infection of HEp2 or 293T, western blotting of ICP27, ICP8, Us11; type: cell-based; conditions: 10 MOI stock treated 1 hour with 50 μM, diluted to 0.5 MOI / 2.5 μM; HEp2 and 293T; 5, 10 and 29 hours post-infection
[2] = tested on: human Adenovirus Type 5 (dE1/E3) containing GFP (Ad-GFP); experiment: Ad-GFP infection of HEp2 cells evaluated by fluorescent microscope; type: cell-based; conditions: 10 μM, HEp2, 20 MOI, 24 hours
[3] = tested on: all three classes of fusion proteins, including Zika, EBOV, influenza A virus (IAV), SFV, VEEV, VSV and EBV; type: cell-based; conditions: for fusion blocked: 10 μM
[4] = tested on: two clinical isolates of HCMV; experiment: HCMV plaque assay in human foreskin fibroblasts; type: cell-based; conditions: HFF, 0-10 μM GA C15:1, 7 days
HSV-1 F' [5] = experiment: GA added to already HSV-1 infected HEp2 and 293T cells, WB detection of HSV-1 proteins; type: cell-based; conditions: 10 μM added 2 hours after infection at 1 MOI
ZIKV (strain PRVABC59) = experiment: ZIKV infection of Normal Human Astrocytes, Zika viral RNA by Taqman real-time PCR; type: cell-based, Zika virus; conditions: 5 μM to 20 μM, day 7
HCMV-GFP = HCMV-GFP infection of HFF evaluated by fluorescent microscope; type: cell-based; conditions: 7 days
[6] = tested on: HEp2, 293T, Human foreskin fibroblasts (HFF) and Normal Human Astrocytes (NHAs); experiment: Toxicity of GA to the tested cells; conditions: at the active concentration (not shown)
HCMV = HCMV DNA copies in infected HFF by qPCR targeting the viral polymerase gene; type: cell-based; conditions: 7 dpi

Sequence of EBOV fusion protein (Q05320 33-501 limits assumed): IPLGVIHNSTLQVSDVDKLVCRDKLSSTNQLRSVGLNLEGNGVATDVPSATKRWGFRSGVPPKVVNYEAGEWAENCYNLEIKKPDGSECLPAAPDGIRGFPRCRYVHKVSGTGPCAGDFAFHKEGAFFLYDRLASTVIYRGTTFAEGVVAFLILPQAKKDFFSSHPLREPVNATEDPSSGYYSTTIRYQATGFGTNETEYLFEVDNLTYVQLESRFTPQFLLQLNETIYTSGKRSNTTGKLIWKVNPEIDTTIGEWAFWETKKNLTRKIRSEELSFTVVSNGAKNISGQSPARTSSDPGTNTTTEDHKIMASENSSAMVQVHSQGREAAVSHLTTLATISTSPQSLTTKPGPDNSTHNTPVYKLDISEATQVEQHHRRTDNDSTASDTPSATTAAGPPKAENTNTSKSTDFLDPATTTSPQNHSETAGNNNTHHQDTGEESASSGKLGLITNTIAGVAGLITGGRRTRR
Sequence of EBOV fusion protein (Q05320 502-676 limits assumed): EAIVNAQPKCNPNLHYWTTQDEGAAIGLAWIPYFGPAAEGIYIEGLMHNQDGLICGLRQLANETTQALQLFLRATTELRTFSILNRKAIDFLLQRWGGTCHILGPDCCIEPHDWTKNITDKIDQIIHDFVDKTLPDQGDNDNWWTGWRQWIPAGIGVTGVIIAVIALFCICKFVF

Molecule	inhibition of Ebola mediated cell-cell fusion (EBOV fusion protein)	inhibition of nonenveloped Adenovirus infection [2]	fusion blocked [3] [%]	effect on HCMV-GFP infection / plaque formation (HCMV-GFP; 10 μM)	also measured
CCCCCC/C=C\CCCCCCCc1cccc(O)c1C(=O)O [GA C15:1, ginkgolic acid C15:1]	inhibition of Ebola mediated cell-cell fusion	did not inhibit	100	only single cells were infected	HSV-1 infection (ICP27, ICP8, Us11 by WB) (HSV-1 F' [1]): complete inhibition of the virus; HCMV infectivity monitored by plaquing efficiency [4]: inhibited HCMV infectivity; HSV-1 protein synthesis in already infected cells (WB) (HSV-1 F' [5]): inhibiting the virus from that point; decrease in Zika viral RNA levels (ZIKV (strain PRVABC59)): 80-90%
Ginkgolic acid [GA]	–	–	–	–	toxicity [6]: no toxicity at the active inhibitory range; reduction of viral DNA (HCMV; GA added 3 hours after infection): about 80%; HCMV DNA copies, dose dependence (HCMV; different concentrations of GA): reduced in a dose dependent manner; fusion after GA was washed [3]: fusion was restored; fusion inhibition with oleic acid (OA) added together with GA [3]: abolished the inhibitory effect of GA
CCCCCC/C=C\CCCCCCCCCc1cccc(O)c1C(=O)O [GA C17:1, Ginkgolic Acid C 17:1]	inhibition of Ebola mediated cell-cell fusion	did not inhibit	100	strong inhibitory effect on HCMV infection	–
Nc1nc(O)c2ncn(COC(CO)CO)c2n1 [GCV, Ganciclovir, reference compound]	–	–	–	–	effect on HCMV-GFP infection / plaque formation (HCMV-GFP; 16 μM GCV): very strong inhibition of the virus
CCCCCCCCCCCCCc1cccc(O)c1C(=O)O [GA C13:0, Ginkgolic acid (GA) C13:0]	inhibition of Ebola mediated cell-cell fusion	did not inhibit	100	strong inhibitory effect on HCMV infection	–
